{
  "source": "patent US20110027388A1",
  "about": "(priority 2009, published 2011)",
  "key": {"HIV-1 Ba-L isolate": {"system": "HIV-1 Ba-L isolate", "format": "cell-based", "conditions": "read-out: IC50 (50% inhibition of virus replication)"}, "HIV-1 NL4-3 isolate": {"system": "HIV-1 NL4-3 isolate", "format": "cell-based", "conditions": "read-out: IC50 (50% inhibition of virus replication)"}, "HIV-1": {"system": "HIV-1", "format": "cell-based"}, "Zaire Ebola GFP virus [1]": {"system": "Zaire Ebola GFP virus", "format": "cell-based"}, "Zaire Ebola GFP virus [2]": {"system": "Zaire Ebola GFP virus", "format": "cell-based", "remark": "listed apart in the source"}, "Ebola virus": {"system": "Ebola virus", "design": "species or system mice", "conditions": "mouse, in vivo, ip, 8 mg/kg"}, "Zaire Ebola GFP virus [3]": {"system": "Zaire Ebola GFP virus", "conditions": "read-out: IC50 for the fit"}, "A549 cells [4]": {"system": "A549 cells"}, "A549 cells [5]": {"system": "A549 cells", "remark": "listed apart in the source"}, "[6]": {"conditions": "mouse, in vivo"}, "Sindbis virus": {"system": "Sindbis virus", "conditions": "cited from earlier work"}},
  "note": "Like-named read-outs stand apart in the source and are kept apart here.",
  "data": [
    {"smiles": "N.N.N.N.N.N.[Cl-].[Cl-].[Cl-].[Co+3]", "note": "[Cohex, Hexaamminecobalt(III) chloride]", "values": [
      {"measurement": "IC50", "setting": "HIV-1 Ba-L isolate", "result": 33.8, "unit": "µM"},
      {"measurement": "IC50", "setting": "HIV-1 NL4-3 isolate", "result": 28.6, "unit": "µM"},
      {"measurement": "IC50", "setting": "HIV-1", "result": 31.2, "unit": "µM"},
      {"measurement": "suppression of viral expression (GFP)", "setting": "Zaire Ebola GFP virus [1]", "result": "~100", "unit": "%"},
      {"measurement": "suppression of viral expression (GFP)", "setting": "Zaire Ebola GFP virus [2]", "result": "~100", "unit": "%"},
      {"measurement": "survival versus PBS treatment", "setting": "Ebola virus", "result": "improved survival rates"},
      {"measurement": "CC50", "setting": "PBMCs", "result": 833, "unit": "µM"},
      {"measurement": "concentrations at which cytotoxicity was observed", "setting": "PBMCs", "result": "above 100 μM"},
      {"measurement": "IC50", "setting": "Zaire Ebola GFP virus [3]", "result": 380, "unit": "µM"},
      {"measurement": "concentration until which no toxic effect appears", "setting": "A549 cells [4]", "result": "about 0.1 mM"},
      {"measurement": "concentration until which no toxic effect appears", "setting": "HepG2 cells", "result": "about 0.1 mM"},
      {"measurement": "viability (leveling off)", "setting": "293T cells", "result": "70-80%"},
      {"measurement": "viability (leveling off)", "setting": "VeroE6 cells", "result": "70-80%"},
      {"measurement": "dead cells by PI staining", "setting": "A549 cells [5]", "result": "almost no change"},
      {"measurement": "tolerability", "setting": "[6]", "result": "no adverse reactions reported"},
      {"measurement": "cell viability and viral expression", "setting": "Sindbis virus", "result": "effective in significantly enhancing cell viability and in depressing viral expression"}
    ]}
  ]
}
